Source: patent publication US12324802B2, “Modulators of cystic fibrosis transmembrane conductance regulator” (Vertex Pharmaceuticals Incorporated, priority 2020, dated 2025)

Target: T1, CFTR (F508del/MF-HBE cells) (Homo sapiens, UniProt P13569, DEL508-508)
T1 construct: human bronchial epithelial (HBE) cells derived from CF subjects heterozygous for F508del and a minimal function CFTR mutation; endogenous in cells; host or cells: primary human bronchial epithelial cells from CF subjects (F508del/MF genotype)
T1 sequence (P13569 with tags, fused parts or gaps DEL508-508): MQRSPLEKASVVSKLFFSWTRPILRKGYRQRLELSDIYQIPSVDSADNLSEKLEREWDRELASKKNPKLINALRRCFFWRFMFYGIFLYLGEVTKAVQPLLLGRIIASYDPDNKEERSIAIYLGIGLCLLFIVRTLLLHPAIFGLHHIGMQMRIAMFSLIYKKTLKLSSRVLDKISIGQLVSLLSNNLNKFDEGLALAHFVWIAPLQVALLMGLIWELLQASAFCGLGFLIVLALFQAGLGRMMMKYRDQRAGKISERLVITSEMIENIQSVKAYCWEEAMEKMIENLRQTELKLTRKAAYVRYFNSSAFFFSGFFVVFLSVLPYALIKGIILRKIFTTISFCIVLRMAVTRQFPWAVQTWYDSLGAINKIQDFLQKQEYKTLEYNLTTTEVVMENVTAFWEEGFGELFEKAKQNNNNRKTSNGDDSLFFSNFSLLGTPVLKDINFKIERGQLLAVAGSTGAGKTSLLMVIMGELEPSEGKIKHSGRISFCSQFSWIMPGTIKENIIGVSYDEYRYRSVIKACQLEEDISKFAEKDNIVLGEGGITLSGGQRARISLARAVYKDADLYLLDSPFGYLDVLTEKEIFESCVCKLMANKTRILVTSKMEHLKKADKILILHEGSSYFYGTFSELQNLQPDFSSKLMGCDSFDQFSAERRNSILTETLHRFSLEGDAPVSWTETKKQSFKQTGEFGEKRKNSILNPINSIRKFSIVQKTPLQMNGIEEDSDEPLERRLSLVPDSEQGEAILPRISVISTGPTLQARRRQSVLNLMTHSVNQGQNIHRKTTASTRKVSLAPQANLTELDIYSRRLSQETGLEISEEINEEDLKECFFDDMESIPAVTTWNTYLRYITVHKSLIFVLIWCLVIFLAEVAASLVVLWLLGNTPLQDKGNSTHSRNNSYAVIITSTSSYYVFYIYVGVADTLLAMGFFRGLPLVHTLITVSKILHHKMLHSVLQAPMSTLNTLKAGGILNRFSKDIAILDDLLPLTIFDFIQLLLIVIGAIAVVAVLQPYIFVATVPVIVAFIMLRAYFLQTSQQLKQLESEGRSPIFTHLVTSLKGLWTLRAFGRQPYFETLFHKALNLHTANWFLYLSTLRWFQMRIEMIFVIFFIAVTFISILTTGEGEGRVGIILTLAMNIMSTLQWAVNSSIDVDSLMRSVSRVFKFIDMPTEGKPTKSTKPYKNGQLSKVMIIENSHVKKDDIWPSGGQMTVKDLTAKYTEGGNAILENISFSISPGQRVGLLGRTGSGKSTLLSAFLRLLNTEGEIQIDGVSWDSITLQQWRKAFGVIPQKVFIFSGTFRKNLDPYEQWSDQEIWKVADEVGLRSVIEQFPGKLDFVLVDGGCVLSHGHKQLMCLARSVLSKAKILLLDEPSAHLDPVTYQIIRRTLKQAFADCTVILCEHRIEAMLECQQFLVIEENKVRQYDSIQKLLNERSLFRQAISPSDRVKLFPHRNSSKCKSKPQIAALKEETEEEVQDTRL
Assay: Ussing chamber assay of CFTR-mediated short-circuit currents (identification of potentiator compounds)
Assay type: cell-based
Details: CFTR-mediated ISC in F508del/MF-HBE cells; incubated 18-24 hours at 37° C. with 10 μM (14S)-8-[3-(2-{dispiro[2.0.2.1]heptan-7-yl}ethoxy)-1H-pyrazol-1-yl]-...-2,2,4-trione, 20% human serum
Procedure: Ussing Chamber Assay of CFTR-Mediated Short-Circuit Currents
Ussing chamber experiments were performed using human bronchial epithelial (HBE) cells derived from CF subjects heterozygous for F508del and a minimal function CFTR mutation (F508del/MF-HBE) and cultured as previously described (Neuberger T, Burton B, Clark H, Van Goor F Methods Mol Biol 2011:741:39-54). After four days the apical media was removed, and the cells were grown at an air liquid interface for >14 days prior to use.
To isolate the CFTR-mediated short-circuit (ISC) current, F508del/MF-HBE grown on Costar® Snapwell™ cell culture inserts were mounted in an Ussing chamber and the transepithelial ISC was measured under voltage-clamp recording conditions (Vhold=0 mV) at 37° C. The basolateral solution contained (in mM) 145 NaCl, 0.83 K2HPO4, 3.3 KH2PO4, 1.2 MgCl2, 1.2 CaCl2), 10 Glucose, 10 HEPES (pH adjusted to 7.4 with NaOH) and the apical solution contained (in mM) 145 NaGluconate, 1.2 MgCl2, 1.2 CaCl2), 10 glucose, 10 HEPES (pH adjusted to 7.4 with NaOH) and 30 μM amiloride to block the epithelial sodium channel. Forskolin (20 μM) was added to the apical surface to activate CFTR, followed by apical addition of a CFTR inhibitor cocktail consisting of BPO, GlyH-101 and CFTR inhibitor 172 (each at 20 μM final assay concentration) to specifically isolate CFTR currents. The CFTR-mediated ISC (μA/cm^2) for each condition was determined from the peak forskolin response to the steady-state current following inhibition.
Identification of Potentiator Compounds
The activity of the CFTR potentiator compounds on the CFTR-mediated ISC was determined in Ussing chamber studies as described above. The F508del/MF-HBE cell cultures were incubated with the potentiator compounds at a range of concentrations in combination with 10 μM (14S)-8-[3-(2-{dispiro[2.0.2.1]heptan-7-yl}ethoxy)-1H-pyrazol-1-yl]-12,12-dimethyl-2λ^6-thia-3,9,11,18,23-pentaazatetracyclo [17.3.1.111,14.05,10]tetracosa-1(22),5,7,9,19(23),20-hexaene-2,2,4-trione for 18-24 hours at 37° C. and in the presence of 20% human serum. The concentration of potentiator compounds and (14S)-8-[3-(2-{dispiro[2.0.2.1]heptan-7-yl}ethoxy)-1H-pyrazol-1-yl]-12,12-dimethyl-2λ^6-thia-3,9,11,18,23-pentaazatetracyclo [17.3.1.111,14.05,10]tetracosa-1(22),5,7,9,19(23),20-hexaene-2,2,4-trione used during the 18-24 hours incubations was kept constant throughout the Ussing chamber measurement of the CFTR-mediated ISC to ensure compounds were present throughout the entire experiment. The efficacy and potency of the putative F508del potentiators was compared to that of the known Vertex potentiator, ivacaftor (N-[2,4-bis(1,1-dimethylethyl)-5-hydroxyphenyl]-1,4-dihydro-4-oxoquinoline-3-carboxamide).

| SMILES | EC50 |
| --- | --- |
| CN1CCCCCCC(C)(O)C2=NN=C(O2)c2nc1c(C(F)(F)F)cc2N (single isomer, unassigned) [Compound 61, 17-amino-6,13-dimethyl-15-(trifluoromethyl)-19-oxa-3,4,13,18-tetrazatricyclo[12.3.1.12,5]nonadeca-1(17),2,4,14(18),15-pentaen-6-ol] | < 0.5 µM |
| CN1CCCCCCC(C)(O)C2=NN=C(O2)c2nc1c(C(F)(F)F)cc2N (single isomer, unassigned) [Compound 62, 17-amino-6,13-dimethyl-15-(trifluoromethyl)-19-oxa-3,4,13,18-tetrazatricyclo[12.3.1.12,5]nonadeca-1(17),2,4,14(18),15-pentaen-6-ol] | < 0.5 µM |
| CC(C)c1cc(N)c2nc1N1CCC[C@H]1CCCCCC(O)(C(F)(F)F)C1=NN=C2O1 (single isomer, unassigned) [Compound 63] | < 0.5 µM |
| CC1CCCCCC(O)(C(F)(F)F)C2=NN=C(O2)c2nc(c(C(F)(F)F)cc2N)N1 (single isomer, unassigned) [Compound 65, 17-amino-12-methyl-6,15-bis(trifluoromethyl)-19-oxa-3,4,13,18-tetrazatricyclo[12.3.1.12,5]nonadeca-1(18),2,4,14,16-pentaen-6-ol] | < 0.5 µM |
| CC1CCCCCC(O)(C(F)(F)F)C2=NN=C(O2)c2nc(c(C(F)(F)F)cc2N)N1 (single isomer, unassigned) [Compound 66, 17-amino-12-methyl-6,15-bis(trifluoromethyl)-19-oxa-3,4,13,18-tetrazatricyclo[12.3.1.12,5]nonadeca-1(18),2,4,14,16-pentaen-6-ol] | < 0.5 µM |
| Nc1cc(C(F)(F)F)c2nc1-c1nnc(o1)C(O)(C(F)(F)F)c1cccc(c1)CCC[C@@H]1CCCN21 (single isomer, unassigned) [Compound 70] | < 0.5 µM |
| Nc1ccc2nc1-c1nnc(o1)C(O)(C(F)(F)F)CCCCC[C@@H]1CCCN21 (single isomer, unassigned) [Compound 71] | < 0.5 µM |
| Nc1ccc2nc1-c1nnc(o1)C(O)(C(F)(F)F)CCCCC[C@@H]1CCCN21 (single isomer, unassigned) [Compound 72] | > 1 µM |
| Nc1cc(C(F)(F)F)c2nc1-c1nnc(o1)C(O)(C(F)(F)F)CCCCCCN2C1CCC1 (single isomer, unassigned) [Compound 73, 17-amino-13-cyclobutyl-6,15-bis(trifluoromethyl)-19-oxa-3,4,13,18-tetrazatricyclo[12.3.1.12,5]nonadeca-1(18),2,4,14,16-pentaen-6-ol] | < 0.5 µM |
| CN1CCCCCCC(O)(c2ccccc2)C2=NN=C(O2)c2nc1c(C(F)(F)F)cc2N (single isomer, unassigned) [Compound 76, 17-amino-13-methyl-6-phenyl-15-(trifluoromethyl)-19-oxa-3,4,13,18-tetrazatricyclo[12.3.1.12,5]nonadeca-1(18),2,4,14,16-pentaen-6-ol] | < 0.5 µM |
| CN1CCCCCCC(O)(c2ccccc2)C2=NN=C(O2)c2nc1c(C(F)(F)F)cc2N (single isomer, unassigned) [Compound 77, 17-amino-13-methyl-6-phenyl-15-(trifluoromethyl)-19-oxa-3,4,13,18-tetrazatricyclo[12.3.1.12,5]nonadeca-1(18),2,4,14,16-pentaen-6-ol] | > 1 µM |
| CN1CCCCCCC(O)(C2CC2)C2=NN=C(O2)c2nc1c(C(F)(F)F)cc2N (single isomer, unassigned) [Compound 78, 17-amino-6-cyclopropyl-13-methyl-15-(trifluoromethyl)-19-oxa-3,4,13,18-tetrazatricyclo[12.3.1.12,5]nonadeca-1(18),2,4,14,16-pentaen-6-ol] | < 0.5 µM |
| CN1CCCCCCC(O)(C2CC2)C2=NN=C(O2)c2nc1c(C(F)(F)F)cc2N (single isomer, unassigned) [Compound 79, 17-amino-6-cyclopropyl-13-methyl-15-(trifluoromethyl)-19-oxa-3,4,13,18-tetrazatricyclo[12.3.1.12,5]nonadeca-1(18),2,4,14,16-pentaen-6-ol] | > 1 µM |
| N#Cc1cc(N)c2nc1N1CCC[C@H]1CCCCCC(O)(C(F)(F)F)C1=NN=C2O1 (single isomer, unassigned) [Compound 80] | < 0.5 µM |
| N#Cc1cc(N)c2nc1N1CCC[C@H]1CCCCCC(O)(C(F)(F)F)C1=NN=C2O1 (single isomer, unassigned) [Compound 81] | > 1 µM |
| Nc1cc(C(F)(F)F)c2nc1-c1nnc(o1)C(O)(C(F)(F)F)c1cccc(n1)CCC[C@@H]1CCCN21 (single isomer, unassigned) [Compound 82] | < 0.5 µM |
| Nc1cc(C(F)(F)F)c2nc1-c1nnc(o1)C(O)(C(F)(F)F)c1cccc(n1)CCC[C@@H]1CCCN21 (single isomer, unassigned) [Compound 83] | 0.5 to 1 µM |
| Nc1cc(C(F)(F)F)c2nc1-c1nnc(o1)C(O)(C(F)(F)F)c1cc(ccn1)CCC[C@@H]1CCCN21 (single isomer, unassigned) [Compound 84] | < 0.5 µM |
| Nc1cc(C(F)(F)F)c2nc1-c1nnc(o1)C(O)(C(F)(F)F)c1cc(ccn1)CCC[C@@H]1CCCN21 (single isomer, unassigned) [Compound 85] | > 1 µM |
| Nc1cc(C(F)(F)F)c2nc1-c1nnc(o1)C(O)(C(F)(F)F)c1cc(ccn1)CCC[C@@H]1CCCN21 (single isomer, unassigned) [Compound 86] | > 1 µM |
| Nc1cc(C(F)(F)F)c2nc1-c1nnc(o1)C(O)(C(F)(F)F)c1cc(ccn1)CCC[C@@H]1CCCN21 (single isomer, unassigned) [Compound 87] | < 0.5 µM |
| Nc1cc(C(F)(F)F)c2nc1-c1nnc(o1)C(O)(C1CCOCC1)CCCCC[C@@H]1CCCN21 (single isomer, unassigned) [Compound 88] | < 0.5 µM |
| Nc1cc(C(F)(F)F)c2nc1-c1nnc(o1)C(O)(C1CCOCC1)CCCCC[C@@H]1CCCN21 (single isomer, unassigned) [Compound 89] | > 1 µM |
| Nc1cc(C2CC2)c2nc1-c1nnc(o1)C(O)(C(F)(F)F)CCCCC[C@@H]1CCCN21 (single isomer, unassigned) [Compound 90] | < 0.5 µM |
| Nc1cc(C2CC2)c2nc1-c1nnc(o1)C(O)(C(F)(F)F)CCCCC[C@@H]1CCCN21 (single isomer, unassigned) [Compound 91] | > 1 µM |
| COc1ccc2cc1C(O)(C(F)(F)F)C1=NN=C(O1)c1nc(c(C(F)(F)F)cc1N)N1CCC[C@H]1CCC2 (single isomer, unassigned) [Compound 92] | > 1 µM |
| COc1ccc2cc1C(O)(C(F)(F)F)C1=NN=C(O1)c1nc(c(C(F)(F)F)cc1N)N1CCC[C@H]1CCC2 (single isomer, unassigned) [Compound 93] | < 0.5 µM |
| CCOC(=O)C1CCCCCC(O)(C(F)(F)F)C2=NN=C(O2)c2nc(c(C(F)(F)F)cc2N)N1 (single isomer, unassigned) [Compound 94, ethyl 17-amino-6-hydroxy-6,15-bis(trifluoromethyl)-19-oxa-3,4,13,18-tetrazatricyclo[12.3.1.12,5]nonadeca-1(18),2,4,14,16-pentaene-12-carboxylate] | < 0.5 µM |
| CCOC(=O)C1CCCCCC(O)(C(F)(F)F)C2=NN=C(O2)c2nc(c(C(F)(F)F)cc2N)N1 (single isomer, unassigned) [Compound 95, ethyl 17-amino-6-hydroxy-6,15-bis(trifluoromethyl)-19-oxa-3,4,13,18-tetrazatricyclo[12.3.1.12,5]nonadeca-1(18),2,4,14,16-pentaene-12-carboxylate] | < 0.5 µM |
